{
  "source": "paper PMC3214022",
  "about": "“Plasmodium falciparum Parasites Are Killed by a Transition State Analogue of Purine Nucleoside Phosphorylase in a Primate Animal Model” (PLoS ONE, 2011)",
  "key": {"in vivo": {"test": "in vivo", "design": "species or system Aotus lemurinus lemurinus", "procedure": "(§1) Samples from blood cells, plasma and media were extracted and analyzed in duplicate. […] Samples were incubated for 20 min at 4 °C and neutralized with 5 M KOH at 10∶1 (v/v, HClO4/KOH) for 20 min at 4 °C. Plates were centrifuged (10 min at 4,000 rpm, 4°C) and supernatants were filtered through a MultiScreen® Filter Plate with Ultracel®-10 Membrane (Millipore). Metabolite and inhibitor levels were quantified by UPLC/MS/MS using a Xevo TQ mass spectrometer (Waters). […] Quantitative determination was performed in ESI positive-ion mode using multiple-reaction monitoring (MRM) mode. The ESI capillary voltage was 0.3 kV, source temperature was set at 150 °C and desolvation temperature at 450 °C. Data acquisition and analysis were carried out by MassLynx V4.1 and QuanLynx software (Waters). The concentration of the metabolites was calculated by interpolation of the observed analyte/internal standard peak-area ratio with the corresponding calibration curve.\n(§2) Laboratory bred Aotus lemurinus lemurinus monkeys (0.75–0.89 kg) were maintained as described. […] Blood samples were collected before the treatment started (t = 0), 0.05 h, 0.5 h, 1 h, 2 h, 6 h, 24 h, 48 h, and 6, 12 and 18 days after the first dose from each monkey and processed as described below. Pharmacokinetic parameters were calculated using PKSolver. For efficacy studies, Aotus monkeys were inoculated intravenously with 5×10^6 parasites of the FVO strain of P. falciparum in an approved treatment protocol. […] Parasitaemia was determined by Giemsa-stained thick blood smears prepared daily from the marginal ear vein [41]. Blood samples were collected from each monkey and transferred to tubes containing lithium heparin, centrifuged and both plasma and blood cells were frozen at −80 °C until analysis. Animals received a physical examination and blood chemistry profiles were monitored after treatment as described previously. Any monkey not responding appropriately to treatment was cured of its infection with mefloquine (40 mg kg^−1). […] The day of clearance is defined as the first of three consecutive days in which the thick blood films are parasite negative. The day of recrudescence is the first of three consecutive days of positive thick blood films after a period of clearance. Suppression is defined as a transient decrease in the parasite count post-treatment without clearance."}, "[1]": {"tested_on": "P. falciparum infected-erythrocytes", "test": "Polyamine and purine levels in cultured cells after BCX4945 treatment (HPLC, UPLC/MS/MS)", "format": "cell-based, Plasmodium falciparum", "settings": "5 µM BCX4945, 24 h", "procedure": "Polyamines from 0.5 M PCA extracts were analyzed as the dansyl-derivatives by HPLC/fluorescence on a Waters Millennium system. Protein concentration was determined with a bicinchoninic acid (BCA) protein assay kit according to the manufacturer's instructions (Pierce) using BSA as a standard. Data from biological samples were normalized to the protein content.\nas §1"}, "[2]": {"tested_on": "purine salvage (hypoxanthine, inosine, adenosine, 2′-deoxyguanosine)", "test": "Purine metabolites in plasma and blood cells of treated Aotus monkeys (UPLC-MS/MS)", "format": "in vivo, Aotus lemurinus lemurinus", "procedure": "as §1, §2"}, "[3]": {"tested_on": "P. falciparum-infected erythrocytes", "test": "Metabolic labeling with [3H]inosine or [3H]hypoxanthine and HPLC analysis", "format": "cell-based, Plasmodium falciparum", "settings": "10 µM BCX4945, 1 h labeling", "source_text": "Samples were extracted with perchloric acid (PCA), neutralized and analyzed by HPLC as described."}, "[4]": {"tested_on": "P. falciparum (FVO strain)", "test": "Efficacy study: parasitaemia in infected Aotus monkeys (thick blood smears)", "format": "in vivo, Aotus lemurinus lemurinus", "settings": "for Parasitaemia: oral 50 mg kg^−1 twice a day for 7 days, monkeys ITM 1-3 = c3-c5", "procedure": "as §2"}, "[5]": {"test": "Weights, CBC and blood chemistry, Table S1 sheet PK (pharmacokinetic study)", "format": "in vivo, Aotus lemurinus lemurinus", "procedure": "as §2"}, "P. falciparum strain FVO": {"tested_on": "P. falciparum strain FVO", "test": "72 h in vitro growth inhibition test, PicoGreen DNA quantitation", "format": "cell-based", "settings": "Plasmodium falciparum, chloroquine/quinine resistant strain FVO, 1% hematocrit, 10 µM hypoxanthine", "procedure": "(§3) Briefly, synchronous culture in the schizont stage was cultured for 24 h in media containing 10 µM of hypoxanthine. Ring stage parasite cultures (200 µl per well, with 1% hematocrit and 1% parasitaemia) were then grown for 72 h in the presence of increasing concentrations of the drug. After 72 h in culture, parasite viability was determined by DNA quantitation using PicoGreen (Invitrogen) as described by Quashie and colleagues. The half-maximum inhibitory concentration (IC50) calculation was performed with Origin software (OriginLab) using a nonlinear regression curve fitting. Half-maximum inhibitory concentration (IC50) is the concentration of inhibitor needed to kill 50% of parasites."}, "P. falciparum strain 3D7": {"tested_on": "P. falciparum strain 3D7", "test": "72 h in vitro growth inhibition test, PicoGreen DNA quantitation", "format": "cell-based", "settings": "Plasmodium falciparum, 3D7, 72 h", "procedure": "as §3"}, "P. falciparum strain Dd2": {"tested_on": "P. falciparum strain Dd2", "test": "72 h in vitro growth inhibition test, PicoGreen DNA quantitation", "format": "cell-based", "settings": "Plasmodium falciparum, DD2, 72 h", "procedure": "as §3"}, "[6]": {"settings": "infected Aotus under BCX4945 treatment"}, "[7]": {"settings": "oral 50 mg kg^−1 twice a day for seven days"}},
  "note": "Several values for one entry are separate records, joined by “and”; a condition that tells them apart may be missing. Equal values may be shown once.",
  "data": [
    {"smiles": "Nc1nc2c(CN3CC(O)C(CO)C3)c[nH]c2c(=O)[nH]1", "note": "(stereo not shown) [BCX4945, 4′-deaza-1′-aza-2′-deoxy-1′-(9-methylene)-Immucillin-G]", "values": [
      {"measurement": "bioavailability", "setting": "in vivo; Aotus lemurinus lemurinus", "value": 28, "unit": "%"},
      {"measurement": "concentration at 24 h", "setting": "in vivo; Aotus lemurinus lemurinus, po", "value": "~1200", "unit": "nM"},
      {"measurement": "plasma concentration within 1 h of the first dose", "setting": "in vivo; Aotus lemurinus lemurinus, po", "value": "approximately 6 µM"},
      {"measurement": "half-life", "setting": "in vivo; monkey", "value": "1.2 to 1.3", "unit": "h"},
      {"measurement": "half-life", "setting": "in vivo; monkey, iv, 10 mg/kg", "value": 1.3, "unit": "h"},
      {"measurement": "Cmax", "setting": "in vivo; monkey, po, 50 mg/kg", "value": "≤ 15000", "unit": "nM"},
      {"measurement": "half-life", "setting": "in vivo; monkey, po, 50 mg/kg", "value": 1.2, "unit": "h"},
      {"measurement": "Adenosine, cell pellet", "setting": "[1]", "value": "10±4", "unit": "nmoles/mg protein"},
      {"measurement": "Adenosine, supernatant", "setting": "[1]", "value": "0.4±0.2 (0.08) µM"},
      {"measurement": "BCX4945 level, cell pellet", "setting": "[1]", "value": "20±6 (0.004) nmoles/mg protein"},
      {"measurement": "BCX4945 level, supernatant", "setting": "[1]", "value": "5±0.6 (0.0002) µM"},
      {"measurement": "Hypoxanthine, cell pellet", "setting": "[1]", "value": "0 (0.007) nmoles/mg protein"},
      {"measurement": "Hypoxanthine, supernatant", "setting": "[1]", "value": "0 (0.004) µM"},
      {"measurement": "Inosine, cell pellet", "setting": "[1]", "value": "19±5", "unit": "nmoles/mg protein"},
      {"measurement": "Inosine, supernatant", "setting": "[1]", "value": "60 µM and 61±5 (0.0001) µM"},
      {"measurement": "MTA, cell pellet", "setting": "[1]", "value": "0.6±0.1", "unit": "nmoles/mg protein"},
      {"measurement": "MTA, supernatant", "setting": "[1]", "value": 0, "unit": "µM"},
      {"measurement": "MTI, cell pellet", "setting": "[1]", "value": "0.6±0.1", "unit": "nmoles/mg protein"},
      {"measurement": "MTI, supernatant", "setting": "[1]", "value": "0.3±0.1 (0.03) µM"},
      {"measurement": "Putrescine, cell pellet", "setting": "[1]", "value": "0.2±0.1 (0.01) nmoles/mg protein"},
      {"measurement": "Spermidine, cell pellet", "setting": "[1]", "value": "1.1±0.3 (0.02) nmoles/mg protein"},
      {"measurement": "Spermine, cell pellet", "setting": "[1]", "value": "0.07±0.03 (0.01) nmoles/mg protein"},
      {"measurement": "hypoxanthine in plasma throughout the treatment period", "setting": "[2]; 50 mg kg^−1 per dose twice a day", "value": "0.3 ± 0.2", "unit": "µM"},
      {"measurement": "2′-deoxyguanosine levels in plasma and blood cells", "setting": "[2]; BCX4945 treatment", "value": "increased"},
      {"measurement": "hypoxanthine concentration in plasma and blood cells", "setting": "[2]; [6]", "value": "below 0.3 µM"},
      {"measurement": "inosine concentration in plasma and blood cells", "setting": "[2]; [6]", "value": "above 50 µM"},
      {"measurement": "hypoxanthine reappearing in the blood", "setting": "[2]; infected animals, three days after the end of three-day oral treatment", "value": "~30", "unit": "µM"},
      {"measurement": "[3H]hypoxanthine incorporation into purine derivatives", "setting": "[3]", "value": "continues at reduced levels"},
      {"measurement": "[3H]inosine incorporation into the purine pool", "setting": "[3]; schizont and trophozoite stages", "value": "complete inhibition"},
      {"measurement": "Parasitaemia", "setting": "[4]; day 1 post-treatment", "value": 0, "unit": "Parasites per µl×10^3"},
      {"measurement": "Parasitaemia", "setting": "[4]; day of treatment 6", "value": 0, "unit": "Parasites per µl×10^3"},
      {"measurement": "Parasitaemia", "setting": "[4]; day −1 (before treatment)", "value": "0.7 Parasites per µl×10^3 and 0.5 Parasites per µl×10^3"},
      {"measurement": "clearance of P. falciparum infection", "setting": "[4]; [7]", "value": "cleared P. falciparum infections between the fourth and the seventh day of treatment"},
      {"measurement": "parasitaemia cleared, of the original infection", "setting": "[4]; [7]", "value": "> 99.99", "unit": "%"},
      {"measurement": "time monkeys remained parasite-negative post-treatment", "setting": "[4]; [7]", "value": "up to nine days"},
      {"measurement": "response to treatment (category)", "setting": "[4]; oral BCX4945, Aotus model", "value": "clearance and recrudescence"},
      {"measurement": "Creatine", "setting": "[5]; IV 10 mg/kg once a day/3 days, monkeys 21014 (c1-5), 21007 (c6-10), 22014 (c11-15), 22004 (c16-20), days -2, 6, 12, 18 (22004: 19), 79, 10 mg/kg, day 12", "value": "0.55 mg/dL and 0.532 mg/dL"},
      {"measurement": "Creatine", "setting": "[5]; IV 10 mg/kg once a day/3 days, monkeys 21014 (c1-5), 21007 (c6-10), 22014 (c11-15), 22004 (c16-20), days -2, 6, 12, 18 (22004: 19), 79, 10 mg/kg, day -2", "value": "<0.5 mg/dL and 0.5 mg/dL"},
      {"measurement": "Blood Urea Nitrogen", "setting": "[5]; oral, one dose 50 mg/kg, monkey 23015, days -2, 6, 12, 19, 79 = c1-c5, 50 mg/kg", "value": "<10.0", "unit": "mg/dL"},
      {"measurement": "Creatine", "setting": "[5]; oral, three doses 50 mg/kg once a day/3 days, monkey 23029, days -2, 6, 12, 19, 79 = c11-c15", "value": "<0.5", "unit": "mg/dL"},
      {"measurement": "IC50", "setting": "P. falciparum strain FVO", "value": "202 ± 27", "unit": "nM"},
      {"measurement": "IC50", "setting": "P. falciparum strain 3D7", "value": "164 ± 20", "unit": "nM"},
      {"measurement": "IC50", "setting": "P. falciparum strain Dd2", "value": "130 ± 22", "unit": "nM"}
    ]}
  ]
}
